Results from PMC6356649, “Effect of Pentacyclic Guanidine Alkaloids from the Sponge Monanchora pulchra on Activity of α-Glycosidases from Marine Bacteria” (Marine Drugs, 2019).

What was measured:
[1] = biological target: T1, α-PsGal (recombinant wild-type α-D-galactosidase, GH36) (Pseudoalteromonas sp. KMM 701, UniProt Q19AX0); experiment: inhibition of pNP-α-Gal hydrolysis; assay type: biochemical; settings: competitive; reaction product; active site; pH 7.0, 20 °C; read-out: decreased the activity on 50%
T1 construct: recombinant from pET-40b(+) in E. coli Rosetta (DE3); two identical subunits; catalytic Asp451 and Asp516
T1 sequence (Q19AX0 1-710): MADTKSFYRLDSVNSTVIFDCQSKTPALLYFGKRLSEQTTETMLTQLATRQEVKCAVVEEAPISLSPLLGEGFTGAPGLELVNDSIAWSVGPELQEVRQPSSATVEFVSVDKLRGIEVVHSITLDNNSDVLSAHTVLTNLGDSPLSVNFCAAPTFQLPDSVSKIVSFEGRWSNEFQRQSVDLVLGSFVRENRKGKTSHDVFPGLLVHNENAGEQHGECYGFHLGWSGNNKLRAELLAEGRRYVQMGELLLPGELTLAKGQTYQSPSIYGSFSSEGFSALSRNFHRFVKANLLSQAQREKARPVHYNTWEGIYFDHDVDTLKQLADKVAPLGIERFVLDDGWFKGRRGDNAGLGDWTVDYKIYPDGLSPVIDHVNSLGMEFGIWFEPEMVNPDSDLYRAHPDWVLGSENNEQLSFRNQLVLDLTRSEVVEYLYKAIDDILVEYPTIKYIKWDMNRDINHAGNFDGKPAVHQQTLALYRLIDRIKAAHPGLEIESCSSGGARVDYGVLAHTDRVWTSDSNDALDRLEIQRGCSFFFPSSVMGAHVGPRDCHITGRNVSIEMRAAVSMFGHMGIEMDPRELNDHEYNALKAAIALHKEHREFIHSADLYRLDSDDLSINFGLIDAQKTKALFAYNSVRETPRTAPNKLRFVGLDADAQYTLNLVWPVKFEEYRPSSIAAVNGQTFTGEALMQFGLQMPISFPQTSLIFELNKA

[2] = biological target: T1, α-PsGal (recombinant wild-type α-D-galactosidase, GH36); experiment: p-nitrophenol release at […] nm; assay type: biochemical; settings: 0.05 M sodium phosphate, pH 7.0, 20 °C; Km only implied (3.32 mM stated as ~5 Km)

Row | IC50 [1] | SMILES | p-nitrophenol release at 400 nm [2]
1 | 700 µM | OC[C@H]1OC(O)[C@H](O)[C@@H](O)[C@H]1O (stereo partly drawn) [D-galactose] | –
2 | – | O=[N+]([O-])c1ccc(O[C@H]2O[C@H](CO)[C@H](O)[C@H](O)[C@H]2O)cc1 [4-nitrophenyl-α-D-galactopyranoside] | p-nithrophenil galactopyranoside (pNP-α-Gal) for α-PsGal
